Experimental data: patent publication US20170202792A1, “METHOD FOR TREATING TAU-ASSOCIATED DISEASES” (NATIONAL TAIWAN NORMAL UNIVERSITY, priority 2016, published 2017)

Columns and labels:
[1] = system: SH-SY5Y tauRD-DsRed cells; experiment: Neurite outgrowth in SH-SY5Y tauRD-DsRed cells (TUBB3 staining); format: cell-based, human; conditions: 10 μM, pre-treated 8 hours, doxycycline 7 days; untreated = 100%
Experimental: We used SH-SY5Y human cells expressing a DsRed-tagged proaggregation mutant (ΔK280) of the C-terminal repeat domain of tau (tauRD-Gln^244-Glu^372 of the longest tau^441 isoform). The recombinant tauRD-DsRed construct was under the control of a tetracycline-regulated, hybrid human cytomegalovirus (CMV)/TetO2 promoter that can be induced by adding doxycycline. The cell lines were grown in medium containing blasticidin (5 μg/mL) and hygromycin (100 μg/mL).
SH-SY5Y tauRD-DsRed cells were seeded in 6-well plates (1×10^5/well) in a medium containing all-trans retinoic acid (10 μM, Sigma). After 48 hours of incubation, cells were pre-treated with 10 μM Congo red and 10 μM compound (I) for 8 hours; after which, tauRD-DsRed expression was induced with 1μg/mL doxycycline for 7 days. The cells were then fixed in 4% paraformaldehyde, permeabilized with 0.1% Triton X-100, blocked in 3% BSA, and then stained with the primary antibody anti-TUBB3 (against neuronal Class III β-tubulin) (1:1000; Covance) and with a secondary anti-rabbit Alexa Fluor® 555 antibody (1:500; Molecular Probes). Nuclei were counterstained with 4′,6-diamidino-2-phenylindole (DAPI). The total outgrowth in the untreated, Congo red-treated, and compound (I)-treated cells was assessed using MetaXpress image acquisition and analysis software.

[2] = system: mouse hippocampal primary culture cells; experiment: Mouse hippocampal primary culture under tau toxicity (WT and GFX); format: cell-based; conditions: 10 nM WT and GFX; 0.1, 0.25, 0.5 μM compound (I), 12 hours
Experimental: The mouse hippocampal primary culture cells were isolated from the hippocampi of C57BL/6J mouse embryos at days 16-18. On days in vitro (DIV) 4 and 7, 2 μM of cytosine arabinoside was added to the culture medium for reducing the glial cell populations. On DIV 9, the cells were treated with 10 nM of Wortmannin (WT) and GF109203X (GFX) to induce tau hyperphosphorylation for mimicking an AD condition. 0, 0.1, 0.25, and 0.5 μM of compound (I) were then added to the cells at DIV 9. Cells were harvested 12 hours later for immunocytochemical staining with NeuN (for neuron) and MAP2 (for neurite morphology) antibodies.

3×Tg-AD mice = experiment: Morris water maze (MWM) test; format: in vivo, mouse
Experimental: (§1) Hyperglycemia was induced by streptozotocin (STZ) to accelerated Alzheimer's disease progression of 6-month-old male transgenic 3×Tg−AD mice. Half of the 3×Tg−AD mice (n=30) received STZ (100 mg/kg) intraperitoneal injection at days 1, 2, 8, and 9 respectively as the high blood glucose group (HBG); another half of the 3×Tg-AD mice (n=30) received sodium citrate (0.1 M) at the same time points as the normal blood glucose group (NBG). Then, HBG and NBG were divided into two groups respectively to give four groups such as NBG-compound (I), HBG-compound (I), NBG-DMSO, and HBG-DMSO with n=15 in each group; wherein 0.25 mg/kg of compound (I) (in 30 μL) were intraperitoneal injected into those mice of NBG-compound (I) and HBG-compound (I) groups daily since day 14 for 28 days, and 30 μL of DMSO solvent were intraperitoneal injected into those mice of NBG-DMSO and HBG-DMSO groups daily since day 14 for 28 days. Both mouse body weight (BW) and blood glucose (BG) were monitored every week.
Morris water maze (MWM) was conducted to evaluate the learning and memory ability of the mice at days 34-42. At first, during the 4 training days, each of the mice received four trails a day, wherein each of the mice was released into the water from a starting point that randomly varied between trials, and the time required for each of the mice to find the hidden platform to escape from the water maze (escape latency) was calculated, and the curve of 4 training days represent the learning profile of mice. 24 hours after the final training trial, the mice underwent three testing trials to determine the time required to find the hidden platform as a measure of spatial learning acquisition. The probe trials were conducted 48 hours after the end of the testing trials to evaluate the long-term spatial memory, wherein each mouse was allowed to swim freely in a pool without platform for 60 seconds, and the duration of the mouse spent in the target quadrant (where the platform was originally disposed) was measured to represent the degree of memory consolidation after learning.

[3] = system: phosphorylated tau protein; experiment: Western blot of mouse hippocampal tissue, phosphorylated tau; format: in vivo; conditions: hyperglycemic 3×Tg-AD mice; 0.25 mg/kg i.p. daily vs DMSO
Experimental: Hyperglycemia was induced by streptozotocin (STZ) to accelerated Alzheimer's disease progression of 6-month-old male transgenic 3×Tg−AD mice. Half of the 3×Tg−AD mice (n=30) received STZ (100 mg/kg) intraperitoneal injection at days 1, 2, 8, and 9 respectively as the high blood glucose group (HBG); another half of the 3×Tg-AD mice (n=30) received sodium citrate (0.1 M) at the same time points as the normal blood glucose group (NBG). […] Both mouse body weight (BW) and blood glucose (BG) were monitored every week.
Mice were sacrificed after MWM and hippocampi were isolated for analyzing several protein expression levels by means of western blot. The protein of the hippocampi was quantified by BCA assay (Pierce), wherein 25 μg of protein was separated by SDS-PAGE and then transferred to PVDF film. Next, protein was blocked for reducing non-specific signals, and reacted with primary antibodies (GSK-3β, pS9-GSK-3β (non-activated), pT216-GSK-3β(activated), pS202Tau, pS396Tau, pT231Tau, HT7 (total Tau)), and secondary antibodies (anti-rabbit, anti-mouse IgG HRP-linked antibody; 1:10,000; Amersham Pharmacia Biotech). β-actin was used as the loading control, ECL kit was used to detect the antigen-antibody complex, and LAS-4000 (Fujifilm) was used for imaging and quantification.

[4] = system: cholinergic, serotonergic and noradrenergic neurons; experiment: Immunohistochemical staining in brain region (ChAT, TH, 5HT neurons); format: in vivo, mouse; conditions: for 5HT (serotonergic neurons in the Raphe nucleus) quantification / TH (noradrenergic neurons in the LC region) quantification: 0.25 mg/kg i.p. daily 28 days
Experimental: as §1
Neurons including the cholinergic neurons in the medial septum (MS), vertical diagonal band of Broca (VDB), and horizontal diagonal band of Broca (HDB) regions; the serotonergic neurons in the Raphe nucleus; and the noradrenergic neurons in the locus coeruleus (LC) region, which are related to cognition in the other brain regions were examined.
After the brain tissue of the mice were fixed and dehydrated, the tissue was cryosectioned (30 μm). The cryosections were then washed with phosphate buffered saline (PBS) for three times. After the optimal cutting temperature compound (OCT) was removed, 3% H2O2was used to remove the endogenous peroxidase, and the cryosections were blocked by the blocking solution for 1 hour to reduce non-specific antigen reactions. The primary antibodies (ChAT, TH, 5HT) were added and reacted for 12 hours, the secondary antibody (1:200 dilution in blocking solution, Vecter) was added and reacted for 1 hour, and then, the avidin-biotin complex was added and reacted for 1 hour. Finally, DAB-kit was used for coloring. All the stained sections were attached to the slides, dried, dehydrated, and mounted for imaging and quantification (Image Pro Plus).

SMILES: CCCCC/C=C\C/C=C\C/C=C\C/C=C\CCCC(=O)Nc1ccc(O)cc1 [compound (I), (5Z, 8Z, 11Z,14Z)-N-(4-Hydroxyphenyl)icosa-5 ,8 , 11,14-tetraen amide]
- neurite growth relative to untreated cells [1]: 140%
- neuronal survival and neurite length [2]: alleviate the phenomena of low neuronal survival rate and short neurite length
- duration in target quadrant of probe trial in MWM (long-term memory) (3×Tg-AD mice; 0.25 mg/kg i.p. daily): ameliorate the long-term memory damages
- swimming velocity in MWM (3×Tg-AD mice; 4 training days, 0.25 mg/kg i.p. daily, among 4 groups): no difference
- escape latency of 4 training days in MWM (learning ability) (3×Tg-AD mice; high blood glucose groups, 0.25 mg/kg i.p. daily vs DMSO): better learning ability
- expression level of phosphorylated tau protein in hippocampus [3]: lower than that of the mice administrated with DMSO
- 5HT (serotonergic neurons in the Raphe nucleus) quantification ([4]; HBG 3×Tg-AD mice): 33.00 ± 1.78↑↑↑
- TH (noradrenergic neurons in the LC region) quantification ([4]; HBG 3×Tg-AD mice): 56.89 ± 4.45↓
- 5HT (serotonergic neurons in the Raphe nucleus) quantification ([4]; NBG 3×Tg-AD mice): 31.80 ± 2.04
- TH (noradrenergic neurons in the LC region) quantification ([4]; NBG 3×Tg-AD mice): 75.75 ± 3.12
- cholinergic neurons (ChAT; MS, VDB, HDB regions) ([4]; data not shown, among groups): no difference was identified
